Values of other authors in US20040121407A1, “Regulation of the growth hormone/IGF-1 axis” (ELIXIR PHARMACEUTICALS, INC., priority 2002, published 2004).
Each block holds one compound with its values, some of them ahead of it.

Experiments:
IGF-1 levels = details: administered subcutaneously
human SST2 = human SST2 (Homo sapiens, UniProt P30874)
human SST2, sequence (P30874 whole entry): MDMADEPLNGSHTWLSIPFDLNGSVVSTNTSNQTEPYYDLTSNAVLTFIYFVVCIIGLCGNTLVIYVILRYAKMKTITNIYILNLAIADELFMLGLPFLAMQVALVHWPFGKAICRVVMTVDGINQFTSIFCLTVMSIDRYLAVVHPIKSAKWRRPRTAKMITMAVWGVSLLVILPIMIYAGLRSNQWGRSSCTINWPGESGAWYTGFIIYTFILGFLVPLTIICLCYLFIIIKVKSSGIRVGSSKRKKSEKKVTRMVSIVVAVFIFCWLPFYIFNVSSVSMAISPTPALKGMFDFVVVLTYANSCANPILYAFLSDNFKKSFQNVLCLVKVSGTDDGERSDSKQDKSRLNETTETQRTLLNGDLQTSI

Compound: Pegvisomant: modified human GH in which nine amino acids have been replaced, with polyethylene glycol polymers; GH receptor antagonist
- IGF-1 levels (IGF-1 levels): dose dependent reduction

Compound: [N-acetyl-Tyr^1,D-Arg^2] GHRH^1-29NH2 [standard GHRH antagonist]
- human GH secretory response to exogenous GHRH (GH secretion; exogenous GHRH): inhibits
- spontaneous GH secretion (GH secretion; in vivo): lowers

- selectivity (human SST2): highly selective
Compound: CC(C)(C)OC(=O)[C@H](CCCCN)NC(=O)[C@@H](Cc1c[nH]c2ccccc12)NC(=O)N1CCC(n2c(=O)[nH]c3ccccc32)CC1 [L-054,522]
